Values quoted from earlier work in paper PMC4546427, “Stereoselective Regulation of P-gp Activity by Clausenamide Enantiomers in Caco-2, KB/KBv and Brain Microvessel Endothelial Cells” (PLoS ONE, 2015).
Read-outs that look alike come from different tables or passages of the source.

Test system: P-gp ATPase
Set-up: method as in PMID 9300798
Settings: cited from earlier work

## CC(=O)[C@H]1CC[C@H]2[C@@H]3CCC4=CC(=O)CC[C@]4(C)[C@H]3CC[C@]12C [progesterone]
Concentrations above 25 μmol/L
  Effect on P-gp ATPase activity: inhibited
Low concentration 6.3 μmol/L
  Effect on P-gp ATPase activity: stimulated
